Experimental data from the NIST ThermoML archive (doi:10.1021/acs.jced.8b01004).

Experiments:
[1] = xn = mol fraction of the nth substance listed; conditions: 100 kPa, Liquid; for viscosity: Falling or rolling sphere viscometry; for mass density: Vibrating tube method
[2] = 100 kPa, Liquid; for viscosity: Falling or rolling sphere viscometry; for mass density: Vibrating tube method

C1CC[C@H]2CCCC[C@H]2C1 [cis-decahydronaphthalene] + C1CC[C@H]2CCCC[C@@H]2C1
[1], x1 = 0.5
Conditions	mass density [kg/m3]	viscosity [mPa·s]
293.15 K	880.41	2.488
298.15 K	876.64	2.255
303.15 K	872.86	2.054
308.15 K	869.1	1.88
313.15 K	865.33	1.727
318.15 K	861.56	1.592
323.15 K	857.8	1.473
328.15 K	854.02	1.367
333.15 K	850.25	1.272
338.15 K	846.47	1.188
343.15 K	842.68	1.111

OC1CCCC1 [cyclopentanol]
[2]
Conditions	mass density [kg/m3]	viscosity [mPa·s]
293.15 K	946.99	11.88
298.15 K	943.05	9.722
303.15 K	939.05	8.068
308.15 K	935.01	7.077
313.15 K	930.91	6.04
318.15 K	926.75	5.19
323.15 K	922.53	4.441
328.15 K	918.24	3.83
333.15 K	913.89	3.312
338.15 K	909.48	2.886
343.15 K	904.99	2.53

CC1CCCCC1 [methylcyclohexane]
[2]
Conditions	mass density [kg/m3]	viscosity [mPa·s]
293.15 K	769.35	0.735
298.15 K	765	0.689
303.15 K	760.65	0.647
308.15 K	756.3	0.611
313.15 K	751.93	0.577
318.15 K	747.56	0.547
323.15 K	743.16	0.519
328.15 K	738.74	0.495
333.15 K	734.29	0.473
338.15 K	729.82	0.453
343.15 K	725.32	0.434

CC1CCCCC1 [methylcyclohexane] + OC1CCCC1
[1], x1 = 1
Conditions	mass density [kg/m3]	viscosity [mPa·s]
293.15 K	769.35	0.735
298.15 K	765	0.689
303.15 K	760.65	0.647
308.15 K	756.3	0.611
313.15 K	751.93	0.577
318.15 K	747.56	0.547
323.15 K	743.16	0.519
328.15 K	738.74	0.495
333.15 K	734.29	0.473
338.15 K	729.82	0.453
343.15 K	725.32	0.434
